Where two headings read alike, the source gives them in different places.
Columns and labels:
[1] = biological target: AChE (Homo sapiens, UniProt P22303); assay: biochemical; assay type: biochemical; settings: for Selectivity Index: AChE and BuChE IC50 values
Experimental: (§1) The inhibition of AChE and BChE was determined using a method described earlier. Briefly, the stock solutions (1 mg/mL) of test analogues were prepared using DMSO. The working solutions (1–100 μg/mL) were prepared using serial dilutions (a serial dilution means a series of diluted solutions, e.g., 0.1 mg/mL, 0.2 mg/mL and so on; the solutions contained 5% DMSO and 95% water). The various concentrations of test compounds (10 μL) were pre-incubated with sodium phosphate buffer (0.1 M; pH 8.0; 150 μL) and AChE (0.1 U/mL; 20 μL) for 15 min at 25 °C. The reaction was initiated via the addition of DTNB (1 mM; 10 μL) and […] (1 mM; 10 μL). The mixture of reaction was mixed using a cyclomixer and incubated for 10 min at 25 °C. The absorbance was measured using a microplate reader at a 410 nm wavelength against the blank reading containing 10μL DMSO instead of the test compound (the solution contained 5% DMSO and 95% water).
(§2) % Inhibition = (Absorbance of control—Absorbance of compound)/Absorbance of control × 100

[2] = biological target: BuChE (Homo sapiens, UniProt P06276); assay: biochemical; assay type: biochemical
Experimental: as §1, §2

[3] = system: brain AChE; settings: similar degree of brain AChE inhibition; cited from earlier work

Chain of BuChE (P06276 29-602): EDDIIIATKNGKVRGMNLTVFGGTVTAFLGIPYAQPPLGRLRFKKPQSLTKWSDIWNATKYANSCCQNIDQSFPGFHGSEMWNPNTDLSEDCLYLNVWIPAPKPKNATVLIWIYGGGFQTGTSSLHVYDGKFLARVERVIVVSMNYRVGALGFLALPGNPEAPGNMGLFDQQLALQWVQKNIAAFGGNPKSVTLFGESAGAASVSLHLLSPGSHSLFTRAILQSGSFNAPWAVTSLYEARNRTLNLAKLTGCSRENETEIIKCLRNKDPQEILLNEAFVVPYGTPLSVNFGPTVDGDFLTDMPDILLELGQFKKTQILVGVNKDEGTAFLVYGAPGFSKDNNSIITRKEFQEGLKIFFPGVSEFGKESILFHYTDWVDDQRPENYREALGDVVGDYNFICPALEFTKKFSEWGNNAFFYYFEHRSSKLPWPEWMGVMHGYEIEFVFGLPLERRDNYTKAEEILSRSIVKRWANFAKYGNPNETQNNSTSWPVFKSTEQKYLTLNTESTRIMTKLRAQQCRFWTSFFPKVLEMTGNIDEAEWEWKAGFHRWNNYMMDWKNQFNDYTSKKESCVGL
Chain of AChE (P22303 32-614): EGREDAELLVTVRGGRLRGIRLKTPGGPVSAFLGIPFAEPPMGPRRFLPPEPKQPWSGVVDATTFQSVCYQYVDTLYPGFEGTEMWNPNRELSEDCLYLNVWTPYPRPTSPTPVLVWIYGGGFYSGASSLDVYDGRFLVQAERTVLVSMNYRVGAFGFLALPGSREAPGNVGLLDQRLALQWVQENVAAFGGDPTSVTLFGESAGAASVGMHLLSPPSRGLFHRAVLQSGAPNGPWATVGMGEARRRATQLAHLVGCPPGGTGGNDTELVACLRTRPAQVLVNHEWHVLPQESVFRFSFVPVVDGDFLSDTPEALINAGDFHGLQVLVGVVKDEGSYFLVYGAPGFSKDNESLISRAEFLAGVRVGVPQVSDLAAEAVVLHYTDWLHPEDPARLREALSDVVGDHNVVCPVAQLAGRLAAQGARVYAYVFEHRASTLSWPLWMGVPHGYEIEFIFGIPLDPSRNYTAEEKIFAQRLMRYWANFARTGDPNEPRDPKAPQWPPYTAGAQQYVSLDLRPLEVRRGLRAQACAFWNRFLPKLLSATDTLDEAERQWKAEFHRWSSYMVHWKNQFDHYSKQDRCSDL

Row | Structure (SMILES) | IC50 [1] | Selectivity Index [1] | IC50 [2] | IC50 ([1]; read-out: IC50AChE) | IC50 ([2]; read-out: IC50BuChE) | doses needed, times greater than those of Donepezil [3] | IC50AChE [1] | IC50BuChE [2]
1 | O=[N+]([O-])c1cc(O)c(Cl)cc1-c1csc(N/N=C(/CSc2nc3ccccc3[nH]2)c2cccc(O)c2[N+](=O)[O-])n1 [compound 9, (E)-4-(2-(2-(2-((1H-benzo[d]imidazol-2-yl)thio)-1-(3-hydroxy-2-nitrophenyl)ethylidene)hydrazinyl)thiazol-4-yl)-2-chloro-5-nitrophenol] | 1300 ± 100 nM | 2.46 | 3200 ± 100 nM | – | – | – | – | –
2 | Cc1ccc(-c2csc(N/N=C(/CSc3nc4ccccc4[nH]3)c3ccccc3[N+](=O)[O-])n2)cc1 [compound 13, (E)-2-(2-(2-((1H-benzo[d]imidazol-2-yl)thio)-1-(2-nitrophenyl)ethylidene) hydrazinyl)-4-(p-tolyl)thiazole] | – | 1.59 | – | 3200 ± 100 nM | 5100 ± 100 nM | – | – | –
3 | Cc1ccc(/C(CSc2nc3ccccc3[nH]2)=N\Nc2nc(-c3ccc(C)cc3)cs2)cc1 [compound 24, (E)-2-(2-(2-((1H-benzo[d]imidazol-2-yl)thio)-1-(p-tolyl)ethylidene)hydrazinyl)-4-(p-tolyl)thiazole] | – | 1.28 | – | 11100 ± 300 nM | 14200 ± 100 nM | – | – | –
4 | COc1cccc(-c2csc(N/N=C(/CSc3nc4ccccc4[nH]3)c3ccccc3)n2)c1 [compound 4, (E)-2-(2-(2-((1H-benzo[d]imidazol-2-yl)thio)-1-phenylethylidene)hydrazinyl)-4-(3-methoxyphenyl)thiazole] | – | 1.51 | – | 3500 ± 100 nM | 5300 ± 100 nM | – | – | –
5 | Clc1ccc(/C(CSc2nc3ccccc3[nH]2)=N\Nc2nc(-c3ccc(Cl)c(Cl)c3)cs2)cc1Cl [compound 21, (E)-2-(2-(2-((1H-benzo[d]imidazol-2-yl)thio)-1-(3,4-dichlorophenyl)ethylidene) hydrazinyl)-4-(3,4-dichlorophenyl)thiazole] | – | 2.0 | – | 100 ± 50 nM | 200 ± 50 nM | – | – | –
6 | Cc1ccc(/C(CSc2nc3ccccc3[nH]2)=N\Nc2nc(-c3ccc(Cl)c(Cl)c3)cs2)cc1 [compound 11, (E)-2-(2-(2-((1H-benzo[d]imidazol-2-yl)thio)-1-(p-tolyl)ethylidene)hydrazinyl)-4-(3,4-dichlorophenyl)thiazole] | – | 2.75 | – | 400 ± 50 nM | 1100 ± 100 nM | – | – | –
7 | Cc1ccc(/C(CSc2nc3ccccc3[nH]2)=N\Nc2nc(-c3ccccc3[N+](=O)[O-])cs2)cc1 [compound 7, (E)-2-(2-(2-((1H-benzo[d]imidazol-2-yl)thio)-1-(p-tolyl)ethylidene)hydrazinyl)-4-(2-nitrophenyl)thiazole] | – | 1.21 | – | 2900 ± 100 nM | 3500 ± 100 nM | – | – | –
8 | Cc1ccc(-c2csc(N/N=C(/CSc3nc4ccccc4[nH]3)c3ccc(Cl)c(Cl)c3)n2)cc1 [compound 19, (E)-2-(2-(2-((1H-benzo[d]imidazol-2-yl)thio)-1-(3,4-dichlorophenyl)ethylidene) hydrazinyl)-4-(p-tolyl)thiazole] | – | 0.92 | – | 1400 ± 100 nM | 1300 ± 100 nM | – | – | –
9 | COc1ccc2c3c1O[C@H]1C[C@@H](O)C=C[C@@]31CCN(C)C2 [Galantamine] | – | – | – | – | – | 3–15 times | – | –
10 | O=[N+]([O-])c1ccccc1/C(CSc1nc2ccccc2[nH]1)=N\Nc1nc(-c2ccc(O)cc2)cs1 [compound 16, (E)-4-(2-(2-(2-((1H-benzo[d]imidazol-2-yl)thio)-1-(2-nitrophenyl)ethylidene) hydrazinyl)thiazol-4-yl)phenol] | – | 2.5 | – | 200 ± 50 nM | 500 ± 50 nM | – | – | –
11 | COc1cccc(-c2csc(N/N=C(/CSc3nc4ccccc4[nH]3)c3ccc(Cl)c(Cl)c3)n2)c1 [compound 20, (E)-2-(2-(2-((1H-benzo[d]imidazol-2-yl)thio)-1-(3,4-dichlorophenyl)ethylidene) hydrazinyl)-4-(3-methoxyphenyl)thiazole] | – | 1.58 | – | 1200 ± 100 nM | 1900 ± 100 nM | – | – | –
12 | Clc1ccc(/C(CSc2nc3ccccc3[nH]2)=N\Nc2nc(-c3ccc(Br)cc3)cs2)cc1Cl [compound 23, (E)-2-(2-(2-((1H-benzo[d]imidazol-2-yl)thio)-1-(3,4-dichlorophenyl)ethylidene) hydrazinyl)-4-(4-bromophenyl)thiazole] | – | 1.43 | – | 4700 ± 100 nM | 6700 ± 100 nM | – | – | –
13 | COc1ccccc1-c1csc(N/N=C(/CSc2nc3ccccc3[nH]2)c2ccc(Cl)c(Cl)c2)n1 [compound 22, (E)-2-(2-(2-((1H-benzo[d]imidazol-2-yl)thio)-1-(3,4-dichlorophenyl)ethylidene) hydrazinyl)-4-(2-methoxyphenyl)thiazole] | – | 1.75 | – | 400 ± 200 nM | 700 ± 100 nM | – | – | –
14 | COc1cccc(-c2csc(N/N=C(/CSc3nc4ccccc4[nH]3)c3ccccc3[N+](=O)[O-])n2)c1 [compound 14, (E)-2-(2-(2-((1H-benzo[d]imidazol-2-yl)thio)-1-(2-nitrophenyl)ethylidene) hydrazinyl)-4-(3-methoxyphenyl)thiazole] | – | 1.35 | – | 3100 ± 100 nM | 4200 ± 100 nM | – | – | –
15 | O=[N+]([O-])c1cc(O)c(Cl)cc1-c1csc(N/N=C(/CSc2nc3ccccc3[nH]2)c2ccccc2O)n1 [compound 2, (E)-4-(2-(2-(2-((1H-benzo[d]imidazol-2-yl)thio)-1-(2-hydroxyphenyl)ethylidene)hydrazinyl)thiazol-4-yl)-2-chloro-5-nitrophenol] | – | – | – | 2300 ± 100 nM | 3200 ± 100 nM | – | – | –
16 | O=[N+]([O-])c1cccc(-c2csc(N/N=C(/CSc3nc4ccccc4[nH]3)c3ccc(Cl)c(Cl)c3)n2)c1 [compound 18, (E)-2-(2-(2-((1H-benzo[d]imidazol-2-yl)thio)-1-(3,4-dichlorophenyl)ethylidene) hydrazinyl)-4-(3-nitrophenyl)thiazole] | – | 1.71 | – | 700 ± 50 nM | 1200 ± 100 nM | – | – | –
17 | Clc1ccc(-c2csc(N/N=C(/CSc3nc4ccccc4[nH]3)c3ccccc3)n2)cc1Cl [compound 6, (E)-2-(2-(2-((1H-benzo[d]imidazol-2-yl)thio)-1-phenylethylidene)hydrazinyl)-4-(3,4-dichlorophenyl)thiazole] | – | 2.0 | – | 700 ± 50 nM | 1400 ± 50 nM | – | – | –
18 | Cc1ccc(-c2csc(N/N=C(/CSc3nc4ccccc4[nH]3)c3ccccc3)n2)cc1 [compound 5, (E)-2-(2-(2-((1H-benzo[d]imidazol-2-yl)thio)-1-phenylethylidene)hydrazinyl)-4-(p-tolyl)thiazole] | – | 1.24 | – | 8600 ± 200 nM | 10700 ± 200 nM | – | – | –
19 | O=[N+]([O-])c1ccccc1/C(CSc1nc2ccccc2[nH]1)=N\Nc1nc(-c2ccc(Cl)c(Cl)c2)cs1 [compound 15, (E)-2-(2-(2-((1H-benzo[d]imidazol-2-yl)thio)-1-(2-nitrophenyl)ethylidene) hydrazinyl)-4-(3,4-dichlorophenyl)thiazole] | – | 2.33 | – | 300 ± 50 nM | 700 ± 50 nM | – | – | –
20 | Oc1ccc(-c2csc(N/N=C(/CSc3nc4ccccc4[nH]3)c3ccccc3)n2)cc1 [compound 3, (E)-4-(2-(2-(2-((1H-benzo[d]imidazol-2-yl)thio)-1-phenylethylidene) hydrazinyl)thiazol-4-yl)phenol] | – | 2.25 | – | 800 ± 100 nM | 1800 ± 100 nM | – | – | –
21 | O=[N+]([O-])c1ccccc1-c1csc(N/N=C(/CSc2nc3ccccc3[nH]2)c2ccc(Cl)c(Cl)c2)n1 [compound 17, (E)-2-(2-(2-((1H-benzo[d]imidazol-2-yl)thio)-1-(3,4-dichlorophenyl)ethylidene) hydrazinyl)-4-(2-nitrophenyl)thiazole] | – | 1.64 | – | 1100 ± 50 nM | 1800 ± 100 nM | – | – | –
22 | Cc1ccc(/C(CSc2nc3ccccc3[nH]2)=N\Nc2nc(-c3cccc([N+](=O)[O-])c3)cs2)cc1 [compound 8, (E)-2-(2-(2-((1H-benzo[d]imidazol-2-yl)thio)-1-(p-tolyl)ethylidene)hydrazinyl)-4-(3-nitrophenyl)thiazole] | – | 1.25 | – | 6300 ± 100 nM | 7900 ± 100 nM | – | – | –
23 | Cc1ccc(/C(CSc2nc3ccccc3[nH]2)=N\Nc2nc(-c3cc(Cl)c(O)cc3[N+](=O)[O-])cs2)c([N+](=O)[O-])c1 [compound 12, (E)-4-(2-(2-(2-((1H-benzo[d]imidazol-2-yl)thio)-1-(4-methyl-2-nitrophenyl)ethylidene)hydrazinyl)thiazol-4-yl)-2-chloro-5-nitrophenol] | 1400 ± 100 nM | 1.5 | 2100 ± 100 nM | – | – | – | – | –
24 | CN(C)c1cc([N+](=O)[O-])c(-c2csc(N/N=C(/CSc3nc4ccccc4[nH]3)c3ccc(-c4ccccc4)cc3)n2)cc1O [compound 10, (E)-5-(2-(2-(2-((1H-benzo[d]imidazol-2-yl)thio)-1-([1,1’-biphenyl]-4-yl)ethylidene)hydrazinyl)thiazol-4-yl)-2-(dimethylamino)-4-nitrophenol] | – | – | – | – | – | – | inactivity | inactivity

— publication PMC9504419, “Multipotent Cholinesterase Inhibitors for the Treatment of Alzheimer’s Disease: Synthesis, Biological Analysis and Molecular Docking Study of Benzimidazole-Based Thiazole Derivatives” (Molecules, 2022)
